The source of these data is ChEMBL document CHEMBL1201862, “PubChem BioAssay data set” (2004).

Test systems include A498; A549; ACHN; HL-60; HOP-92; Hs-578T; KM12; Malme-3M; NCI-H226; NCI-H522; OVCAR-3; OVCAR-5; SF-268; SK-MEL-28; SK-MEL-5; SK-OV-3; SR; T47D; U-251; UO-31.
Common to all, as to test: inhibition of tumour cell growth, NCI panel, 48 h

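Cells were grown in 96-well plates and exposed to each compound for 48 hours at five concentrations; endpoints were interpolated linearly between bracketing concentrations, or set to the highest concentration if not reached. Here, GI50 denotes the concentration required for 50% inhibition of growth.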 Active and inactive are the calls of the source. Rule as the data show it: active = GI50 up to about 1.1 µM and inactive = higher.

As for `Cc1cc(Cc2c(C)c(C)c(Cc3cc(C)cc(C(C)(C)C)c3O)c(C)c2C)c(O)c(C(C)(C)C)c1`, the GI50 with A498 is > 100 µM (inactive); in the assay with A549 it was > 100 µM (inactive); in the assay on ACHN, > 100 µM (inactive); in the assay with HL-60 it was 14.4 µM (inactive); with HOP-92 it was > 100 µM (inactive); with Hs-578T, > 100 µM (inactive). The GI50 in the assay with KM12, in the assay with Malme-3M, in the assay on NCI-H226, with NCI-H522, in the assay with OVCAR-3 and in the assay on OVCAR-5 was > 100 µM (inactive) each time. The GI50 in the assay on SF-268 is > 100 µM (inactive); in the assay with SK-MEL-28, > 100 µM (inactive); in the assay with SK-MEL-5, > 100 µM (inactive); with SK-OV-3, > 100 µM (inactive); in the assay on SR it was 1.21 µM (inactive); with T47D, > 100 µM (inactive). The GI50 with U-251 and in the assay on UO-31 was > 100 µM (inactive) throughout.
Turning to `C[N+](C)(C)CC1CCc2ccccc2C1=O` (stereo not given), the GI50 in the assay on A498 was 26.2 µM (inactive); in the assay with A549, 26.3 µM (inactive); with ACHN it was 7.55 µM (inactive); in the assay with HL-60 it was 2.52 µM (inactive); with HOP-92 it was 7.35 µM (inactive); with Hs-578T it was 13.7 µM (inactive). The GI50 is 10.8 µM (inactive) in the assay with KM12; 1.8 µM (inactive) with Malme-3M; 24.2 µM (inactive) with NCI-H226; 0.0809 µM (active) with NCI-H522; 4.49 µM (inactive) with OVCAR-3; 16.1 µM (inactive) with OVCAR-5. Further, the GI50 with SF-268 is 17.3 µM (inactive); in the assay on SK-MEL-28, 8.89 µM (inactive); in the assay on SK-MEL-5 it was 16.2 µM (inactive); in the assay on SK-OV-3, 18.6 µM (inactive); in the assay with SR, 1.79 µM (inactive); in the assay on T47D it was 6.53 µM (inactive). For the same compound, the GI50 was 5.64 µM (inactive) with U-251 and 18.3 µM (inactive) in the assay with UO-31.
Consider `Cc1ccc(Nc2nc(=S)[nH]c3[nH]ncc23)cc1`, for which the GI50 was 37 µM (inactive) with A498; 61.2 µM (inactive) in the assay with A549; 48.4 µM (inactive) with ACHN; 48.8 µM (inactive) with HL-60; > 100 µM (inactive) with HOP-92; 77.1 µM (inactive) in the assay with Hs-578T. Also, the GI50 in the assay on KM12 was 31 µM (inactive); in the assay on Malme-3M it was > 100 µM (inactive); in the assay on NCI-H226, > 100 µM (inactive); in the assay on NCI-H522, 32.2 µM (inactive); with OVCAR-3, 50.4 µM (inactive); in the assay with OVCAR-5, > 100 µM (inactive). The GI50 was > 100 µM (inactive) in the assay with SF-268; 48.3 µM (inactive) with SK-MEL-28; 37.6 µM (inactive) with SK-MEL-5; > 100 µM (inactive) in the assay with SK-OV-3; 36.1 µM (inactive) in the assay on SR; 66.1 µM (inactive) in the assay on T47D. The GI50 is 64.7 µM (inactive) with U-251 and 78 µM (inactive) in the assay with UO-31.
`Cc1occc1/C(S)=N\c1ccc(Cl)c(COC(C)(C)C)c1`: the GI50 in the assay with A498 is 17.8 µM (inactive); in the assay with A549 it was 19.3 µM (inactive); in the assay on ACHN, 17.3 µM (inactive); in the assay on HL-60, 19.4 µM (inactive); in the assay with HOP-92 it was 15.7 µM (inactive); with Hs-578T, 20.2 µM (inactive). The GI50 with KM12 is 16.7 µM (inactive); with Malme-3M it was 16.5 µM (inactive); in the assay with NCI-H226 it was 18.1 µM (inactive); with NCI-H522 it was 14.5 µM (inactive); in the assay with OVCAR-3, 15.1 µM (inactive); with OVCAR-5, 19.4 µM (inactive). For the same compound, the GI50 in the assay with SF-268 is 17.9 µM (inactive); in the assay with SK-MEL-28, 16.5 µM (inactive); with SK-MEL-5, 16.2 µM (inactive); with SK-OV-3 it was 17.1 µM (inactive); in the assay on SR, 17.6 µM (inactive); in the assay with T47D, 12.1 µM (inactive). Moreover, the GI50 with U-251 is 15.6 µM (inactive); in the assay with UO-31, 13.1 µM (inactive).
